Measured values taken from US20240327382A1 (ALMAC DISCOVERY LIMITED, priority 2021, published 2024).

Molecular target: T1, Full-length USP19 (Homo sapiens, UniProt O94966)
T1 construct: Full-length USP19 was purchased from Boston Biochem (E-576); purchased Boston Biochem E-576
T1 sequence (O94966 1-1318): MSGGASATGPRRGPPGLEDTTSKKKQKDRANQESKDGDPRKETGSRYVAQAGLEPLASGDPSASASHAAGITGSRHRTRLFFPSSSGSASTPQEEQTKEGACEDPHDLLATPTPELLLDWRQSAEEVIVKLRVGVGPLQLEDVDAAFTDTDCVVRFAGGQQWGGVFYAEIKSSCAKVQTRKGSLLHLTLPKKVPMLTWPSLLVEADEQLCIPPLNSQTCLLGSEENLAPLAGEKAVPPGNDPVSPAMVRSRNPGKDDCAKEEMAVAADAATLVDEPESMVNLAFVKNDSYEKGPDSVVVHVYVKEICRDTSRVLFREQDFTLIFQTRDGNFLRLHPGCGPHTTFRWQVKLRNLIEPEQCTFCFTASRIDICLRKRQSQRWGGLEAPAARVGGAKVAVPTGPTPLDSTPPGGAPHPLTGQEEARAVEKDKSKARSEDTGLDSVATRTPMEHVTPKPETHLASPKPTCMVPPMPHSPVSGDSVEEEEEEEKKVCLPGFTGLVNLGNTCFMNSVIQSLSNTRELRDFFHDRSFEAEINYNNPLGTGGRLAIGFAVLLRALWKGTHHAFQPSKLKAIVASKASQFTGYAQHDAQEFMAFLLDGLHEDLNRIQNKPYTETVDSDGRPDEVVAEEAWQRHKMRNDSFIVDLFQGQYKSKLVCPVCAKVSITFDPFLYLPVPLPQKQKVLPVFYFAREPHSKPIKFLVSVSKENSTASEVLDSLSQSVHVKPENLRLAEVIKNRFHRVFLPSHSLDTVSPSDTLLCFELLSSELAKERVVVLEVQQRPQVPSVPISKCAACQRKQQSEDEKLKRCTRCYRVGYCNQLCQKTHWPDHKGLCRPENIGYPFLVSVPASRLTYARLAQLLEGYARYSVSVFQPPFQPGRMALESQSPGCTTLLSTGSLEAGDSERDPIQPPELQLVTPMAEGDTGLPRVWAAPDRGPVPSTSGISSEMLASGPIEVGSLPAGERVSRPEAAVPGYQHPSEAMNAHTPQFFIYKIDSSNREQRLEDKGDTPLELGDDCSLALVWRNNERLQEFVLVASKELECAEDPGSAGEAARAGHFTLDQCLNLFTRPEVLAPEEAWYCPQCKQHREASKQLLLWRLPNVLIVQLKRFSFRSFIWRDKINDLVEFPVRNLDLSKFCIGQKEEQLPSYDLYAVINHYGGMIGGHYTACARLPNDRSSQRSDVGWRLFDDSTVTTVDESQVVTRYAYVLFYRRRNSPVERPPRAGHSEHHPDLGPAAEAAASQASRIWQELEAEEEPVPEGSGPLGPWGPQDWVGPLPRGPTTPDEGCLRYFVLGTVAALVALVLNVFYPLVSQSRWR
Assay: USP19 fluorescence polarisation (FP) assay, Ubiquitin-Lys-TAMRA substrate
Type: biochemical
Details: average of at least two duplicate experiments
Summary of the method: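 Full-length human USP19 (added at 2.5 nM) was preincubated 30 min at RT with inhibitor (serial dilutions 200 μM to 2 μM) in 50 mM HEPES pH 7.4, 150 mM NaCl, 5 mM DTT, 0.05% BSA, 0.05% CHAPS. Ubiquitin-Lys-TAMRA isopeptide substrate (added at 500 nM) started the reaction, and FP (Ex 530/Em 575 nm) was read every 15 min over 90 min. IC50 came from non-linear regression of signal normalised to no-compound control, averaged over at least two duplicate experiments.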

| Compound | IC50 [nM] |
| --- | --- |
| CC1(C)CN(C(=O)N2CCNC[C@H]2c2ccccc2)CCC1Cn1cnc(-c2ccccc2)cc1=O (stereo partly drawn) [Example 18, 3-((33-Dimethyl-1-((R)-2-phenylpiperazine-1-carbonyl)piperidin-4-yl)methyl)-6-phenylpyrimidin-4(3H)-one] | 10 to 100 |
| O=C(N1CC[C@H](Cn2cnc(-c3ccccc3)cc2=O)C2(CCCC2)C1)N1CCNC[C@H]1c1ccccc1 (single isomer, unassigned) [Example 13] | 100 to 1000 |
| CN[C@@H]1CCN(C(=O)N2CC[C@@H](Cn3cnc4ccc(Cl)cc4c3=O)C3(CCCC3)C2)[C@H](c2cc(F)ccc2F)C1 [Example 198, 6-Chloro-3-(((R)-7-((2S,4R)-2-(2,5-difluorophenyl)-4-(methylamino)piperidine-1-carbonyl)-7-azaspiro[4.5]decan-10-yl)methyl)quinazolin-4(3H)-one] | < 10 |
| COc1ccccc1-c1cc(=O)n(C[C@@H]2CCN(C(=O)N3CC[C@@H](N4CCOCC4)C[C@H]3c3ccccc3)CC23CCCC3)cn1 [Example 110, 6-(2-Methoxyphenyl)-3-(((R)-7-((2S,4R)-4-morpholino-2-phenylpiperidine-1-carbonyl)-7-azaspiro[4.5]decan-10-yl)methyl)pyrimidin-4(3H)-one] | 10 to 100 |
| COCCN[C@@H]1CCN(C(=O)N2CC[C@@H](Cn3cnc(-c4ccccc4)cc3=O)C3(CCCC3)C2)[C@H](c2cccc(F)c2)C1 [Example 195, 3-(((R)-7-((2S,4R)-2-(3-Fluorophenyl)-4-((2-methoxyethyl)amino)piperidine-1-carbonyl)-7-azaspiro[4.5]decan-10-yl)methyl)-6-phenylpyrimidin-4(3H)-one] | < 10 |
| CC(C)N[C@@H]1CCN(C(=O)N2CC[C@@H](Cn3cnc(-c4ccccc4)cc3=O)C3(CCCC3)C2)[C@H](c2cc(F)cc(F)c2)C1 [Example 192, 3-(((R)-7-((2S,4R)-2-(3,5-Difluorophenyl)-4-(isopropylamino)piperidine-1-carbonyl)-7-azaspiro[4.5]decan-10-yl)methyl)-6-phenylpyrimidin-4(3H)-one] | < 10 |
| O=C(N1CC[C@@H](Cn2cnc(-c3ccccc3)cc2=O)C2(CCCC2)C1)N1CC[C@@H](NC2CC2)C[C@H]1c1ccccc1 [Example 79, 3-(((R)-7-((2S,4R)-4-(Cyclopropylamino)-2-phenylpiperidine-1-carbonyl)-7-azaspiro[4.5]decan-10-yl)methyl)-6-phenylpyrimidin-4(3H)-one] | < 10 |
| CCN[C@@H]1CCN(C(=O)N2CCC(Cn3cnc(-c4ccccc4)cc3=O)CC2)[C@H](c2ccccc2)C1 [Example 75, 3-((1-((2S,4R)-4-(Ethylamino)-2-phenylpiperidine-1-carbonyl)piperidin-4-yl)methyl)-6-phenylpyrimidin-4(3H)-one] | 10 to 100 |
| CN[C@@H]1CCN(C(=O)N2CC[C@@H](Cn3cnc(C4CC4)cc3=O)C3(CCCC3)C2)[C@H](c2cc(F)ccc2F)C1 [Example 163, 6-Cyclopropyl-3-(((R)-7-((2S,4R)-2-(2,5-difluorophenyl)-4-(methylamino)piperidine-1-carbonyl)-7-azaspiro[4.5]decan-10-yl)methyl)pyrimidin-4(3H)-one] | < 10 |
| N[C@H]1C[C@@H](c2ccccc2)N(C(=O)N2CC[C@@H](Cn3ccc(-c4ccccc4)cc3=O)C3(CCCC3)C2)C[C@H]1F (racemic) [Example 85, 1-(((R)-7-((2S,4S,5R)-4-Amino-5-fluoro-2-phenylpiperidine-1-carbonyl)-7-azaspiro[4.5]decan-10-yl)methyl)-4-phenylpyridin-2(1H)-one and 1-(((R)-7-((2S,4S,5S)-4-Amino-5-fluoro-2-phenylpiperidine-1-carbonyl)-7-azaspiro[4.5]decan-10-yl)methyl)-4-phenylpyridin-2(1H)-one] | < 10 |
| N[C@@H]1CCN(C(=O)N2CCC(Cn3ccncc3=O)C3(CCCC3)C2)[C@H](c2ccccc2)C1 (stereo partly drawn) [Example 31, 1-((7-((2S,4R)-4-Amino-2-phenylpiperidine-1-carbonyl)-7-azaspiro[4.5]decan-10-yl)methyl)pyrazin-2(1H)-one] | 10 to 100 |
| Cc1cccnc1CN[C@@H]1CCN(C(=O)N2CC[C@@H](Cn3cnc(-c4ccccc4)cc3=O)C3(CCCC3)C2)[C@H](c2ccccc2)C1 [Example 193, 3-(((R)-7-((2S,4R)-4-(((3-Methylpyridin-2-yl)methyl)amino)-2-phenylpiperidine-1-carbonyl)-7-azaspiro[4.5]decan-10-yl)methyl)-6-phenylpyrimidin-4(3H)-one] | 10 to 100 |
| CN[C@H]1C[C@@H](c2ccccc2)N(C(=O)N2CC[C@@H](Cn3cnc(-c4ccccc4)cc3=O)C3(CCCC3)C2)C1 [Example 90, 3-(((R)-7-((2S,4S)-4-(Methylamino)-2-phenylpyrrolidine-1-carbonyl)-7-azaspiro[4.5]decan-10-yl)methyl)-6-phenylpyrimidin-4(3H)-one] | < 10 |
| CN[C@@H]1CCN(C(=O)N2CC[C@@H](Cn3ccc(Cl)cc3=O)C3(CCCC3)C2)[C@H](c2ccccc2)C1 [Example 83, 4-Chloro-1-(((R)-7-((2S,4R)-4-(methylamino)-2-phenylpiperidine-1-carbonyl)-7-azaspiro[4.5]decan-10-yl)methyl)pyridin-2(1H)-one] | < 10 |
| C[C@H]1CN(C(=O)N2CC[C@@H](Cn3cnc4ccc(F)cc4c3=O)C3(CCCC3)C2)[C@H](c2cc(F)ccc2F)CO1 [Example 200, 3-(((R)-7-((2S,5R)-5-(2,5-Difluorophenyl)-2-methylmorpholine-4-carbonyl)-7-azaspiro[4.5]decan-10-yl)methyl)-6-fluoroquinazolin-4(3H)-one] | 10 to 100 |
| N[C@@H]1CCN(C(=O)N2CCC(CN3Cc4nccn4CC3=O)C3(CCCC3)C2)[C@H](c2ccccc2)C1 (stereo partly drawn) [Example 42, 7-((7-((2S,4R)-4-Amino-2-phenylpiperidine-1-carbonyl)-7-azaspiro[4.5]decan-10-yl)methyl)-7,8-dihydroimidazo[1,2-a]pyrazin-6(5H)-one] | 10 to 100 |
| N[C@@H]1CCN(C(=O)N2CC[C@@H](Cn3cnc(-c4ccccc4)cc3=O)C3(CCCC3)C2)[C@H](c2cccc(F)c2)C1 [Example 66, 3-(((R)-7-((2,4R)-4-Amino-2-(3-fluorophenyl)piperidine-1-carbonyl)-7-azaspiro[4.5]decan-10-yl)methyl)-6-phenylpyrimidin-4(3H)-one] | < 10 |
| CN[C@@H]1CCN(C(=O)N2CC[C@@H](Cn3cnc(-c4ccccc4OC)cc3=O)C3(CCCC3)C2)[C@H](c2ccccc2)C1 [Example 97, 6-(2-Methoxyphenyl)-3-(((R)-7-((2S,4R)-4-(methylamino)-2-phenylpiperidine-1-carbonyl)-7-azaspiro[4.5]decan-10-yl)methyl)pyrimidin-4(3H)-one] | < 10 |
| N[C@@H]1CCN(C(=O)N2CC[C@@H](Cn3cnc(-c4ccccc4)cc3=O)C3(CCCC3)C2)[C@H](c2cc(F)cc(F)c2)C1 [Example 107, 3-[[(10R)-7-[(2S,4R)-4-amino-2-(3,5-difluorophenyl)piperidine-1-carbonyl]-7-azaspiro[4.5]decan-10-yl]methyl]-6-phenyl-pyrimidin-4-one] | < 10 |
| CO[C@@]1(Cn2ccc(-c3ccccc3)cc2=O)CCN(C(=O)N2CC[C@@H](N)C[C@H]2c2ccccc2)CC12CCCC2 [Example 73, 1-(((S)-7-((2S,4R)-4-Amino-2-phenylpiperidine-1-carbonyl)-10-methoxy-7-azaspiro[4.5]decan-10-yl)methyl)-4-phenylpyridin-2(1H)-one] | < 10 |
| CN[C@@H]1CCN(C(=O)N2CC[C@@H](Cn3cnc(-c4ccccc4)cc3=O)C3(CCCC3)C2)[C@H](c2cccc(F)c2)C1 [Example 63, 3-(((R)-7-((2S,4R)-2-(3-Fluorophenyl)-4-(methylamino)piperidine-1-carbonyl)-7-azaspiro[4.5]decan-10-yl)methyl)-6-phenylpyrimidin-4(3H)-one] | < 10 |
